“Also recorded” adds a separate entry of the source. Where two headings read alike, the source gives them in different places.

Assay [1] relates to wildtype and TNF-α KO mice.
Description: Tinnitus was assessed using the gap detection paradigm. The gap detection task measures the acoustic startle response elicited by a brief white noise pulse and its suppression by a preceding silent gap embedded in a background sound. […] Mice were placed in a small box, which rested atop a piezoelectric sensor within a sound attenuation chamber. Sounds were played through an open field speaker (FOSTEX FT17H) fixed above the small box. Each trial began with a carrier pure tone (frequency pseudo-randomly selected from 5, 7, 10, 14, 20, 28, or 45 kHz, all at 75 dB SPL), played for 10-20 s. In uncued trials, the carrier tone was followed by a startle stimulus—a 50 ms white noise burst at 102 dB SPL. In cued trials, the startle stimulus was preceded by a 50 ms silence, 100 ms prior to its onset. In each testing session, the animal performed a total of 500 trials (50% cued and 50% uncued). After each session, the startle response ratio was calculated, which is defined as the average startle amplitude to the cued trials divided by the average amplitude of the uncued trials. The startle response ratio signifies a silent-gap induced reduction of the startle response. For example, a startle response ratio of 0.6 indicates a 40% reduction of the startle amplitude for the cued trials.
For a further assay, the system named is TNF-α. The conditions noted are these: has been shown; cited from earlier work.
A further assay has as its system WT and KO mice. The conditions noted are these: systemic salicylate injection, FIGS. 5C-5D.
The conditions of assay [2]: 5 mg/kg, I.P. route; cited from earlier work.
Assay [3] relates to blast-exposed rats. The assay is described as follows: Blast-induced tinnitus, gap ratio, etanercept. The class given is in vivo, rat. The conditions noted are these: for gap ratio values (gap/startle-only response), therapeutic effect on tinnitus: FIG. 29. As for the experimental part:
Each of the rats was subjected to blast exposure in the left ear using a shock tube (ORA Inc.) located at the Wayne State University Bioengineering Center. The blast exposure of each rat was performed under anesthesia with a mixture of air (1 liter/min) and isoflurane (5% v/v). The rat was placed on supportive netting with a metal surround and secured on a pole with its head facing the oncoming shockwave. During blast exposure, the rat's right ear was occluded with a silicone earplug (Mack's; McKeon Products, Warren, Mich.), followed by application of mineral oil to seal any remaining openings. The average energy under 10 kHz measured at 22 psi was equivalent to 150 kPa or 197.5 dB SPL. After blast exposure, each rat was transferred to a polycarbonate cage.
Thirty two rats from Example 10 were used. Behavioral tinnitus testing, including gap detection and PPI testing, was conducted with Hamilton-Kinder startle-reflex hardware and software. During behavioral testing, each rat was placed in an individual noise-attenuation chamber to perform gap and PPI testing. In the gap procedure, each rat was presented with a constant 60-dB SPL background noise composed of 2,000 Hz bandpass signals at 6-8, 10-12, 14-16, 18-20, or 26-28 kHz or broadband noise (BBN; 2-30 kHz). A 115 dB SPL, 50 ms noise-burst was used as the startle stimulus to induce the acoustic startle reflex. The background noise session contained two conditions, one condition was the startle only condition in which rat was presented with the startle stimulus alone, and the other condition was the gap condition in which a rat was presented with a startle stimulus preceded by a silent gap embedded within the background noise. Silent gaps were 40 ms in duration with a lead interval of 90 ms to the startle stimulus. The startle reflex of rats was measured in response to 3 conditions: 1) background noise alone, 2) startle only, and 3) gap. […] The startle amplitude of rats in response to the two conditions was measured: the startle-only condition and a prepulse followed by the startle stimulus. […]

For assay [4], the system named is blast-exposed rats. The assay is described as follows: Blast-induced tinnitus, gap detection, thalidomide treatment. Type of assay: in vivo, rat. The conditions noted are these: injected daily for 5 days, FIG. 8C. As for the experimental part:
A rat model of blast-induced tinnitus was developed to investigate the role of TNF-α in a traumatic brain injury (TBI) blast exposure induced tinnitus. Rats were anesthetized with isoflurane (0.75-1% in a 2:1 N2O:O2 gas mixture), placed on supportive netting, and secured with a locking device. All animals had one ear occluded with an earplug before they were blast-exposed in a shock-tube assembly (ORA, Inc.).
Behavioral evidence of blast-induced tinnitus was tested using a gap detection test as described above. […] Blast-exposed rats also spent less time in, and made fewer entries into, the open arms of an elevated plus maze (FIG. 7C), showing a higher anxiety level. The results are consistent with findings in blast-exposed humans and indicate that the blast model is suitable for studying mechanisms and treatment of blast-induced tinnitus and anxiety.

In a further assay the test system is C57BL/6 mice. The assay is described as follows: Noise-induced tinnitus (NIHL), gap detection task, thalidomide treatment. The conditions noted are these: 100 mg/kg IP daily for three days after noise exposure, FIG. 9. The class given is in vivo, mouse. As for the experimental part:
All experimental procedures were reviewed and approved by UC Berkeley Animal Care and Use Committee. TNF-α knockout (KO) mice and corresponding C75Bl/6 wild-type (WT) mice were originally purchased from the Jackson Laboratory and were bred in a UC Berkeley animal facility. Animals were anesthetized with ketamine (100 mg/kg, IP) and xylazine (10 mg/kg, IP) and maintained at 36.5° C. with a homeothermic heating pad (Harvard Apparatus). Unilateral noise-induced hearing loss (NIHL) experiments were performed in a sound attenuation chamber by playing a continuous pure tone of 8 kHz at 112 dB SPL through a calibrated custom-made piezo earphone speaker to the left ear of the mouse for 2 hours, while the right ear was protected with sound attenuating clay. The sound level was calibrated with a Bruel and Kjaer 4135 condenser microphone (Nærum, Denmark) before and after the NIHL.
Tinnitus was assessed using the gap detection paradigm.
Eight C57BL/6 mice were tested with the gap detection task, described above, before and after undergoing NIHL. […] Afterward, animals received daily injection of 100 mg/kg (IP) thalidomide for three days and were tested for tinnitus.

Description for WT and KO mice: To assess an animal's ability to perform an auditory task, separate from its ability to detect a silent gap, the pre-pulse inhibition (PPI) task was administered to a subset of the mice before and after NIHL. The physical setup for the PPI task was identical to that of the gap detection. However, the trial structure differed in that carrier tone was absent and a white noise burst was cued by a 50-ms pure tone pulse (frequency pseudo-randomly selected from 5, 7, 10, 14, 20, 28, or 45 kHz, all at 75 dB SPL). In short, the PPI task tests an animal's ability to detect a pure tone pulse in silence, while the gap detection task measures an animal's ability to detect a silent gap in a continuous pure tone.

With `O=C(O)c1ccccc1O` [salicylate], the “behavioral manifestation of tinnitus (gap detection)” value is recorded as “did not show tinnitus” in assay [1] (TNF-α KO mice, same dose 300 mg/kg, FIG. 5B) and “resulted in robust behavioral manifestation of tinnitus” in assay [1] (wildtype mice, systemic injection 300 mg/kg, 30 min later, FIG. 5A). For the same compound, in the assay on TNF-α, the “TNF-α expression in the inferior colliculus” value is given as “increase TNF-α expression in the inferior colliculus”. Besides, the PPI performance entry in the assay with WT and KO mice is “affected PPI performance in WT but not KO mice”.
For the compound etanercept, in assay [2], the “effect on TBI” value was “attenuates TBI”. Further, the “gap ratio values (gap/startle-only response), therapeutic effect on tinnitus” value in the assay on blast-exposed rats [3] (5 mg/kg i.p. daily for 5 days from 1 day after blast, low frequencies and 28 kHz, two-week and three-week timepoints) is given as “significant therapeutic effect on tinnitus”; in the assay on blast-exposed rats [3] (5 mg/kg i.p. daily for 5 days, one-day and one-week timepoints), “less pronounced”. Also, the “onset of therapeutic effect relative to 3,6′-dithiothalidomide” value in the assay on blast-exposed rats [3] (compare FIG. 29 with FIG. 15A) is recorded as “delayed therapeutic effect”.
As to `O=C1CCC(N2C(=O)c3ccccc3C2=O)C(=O)N1` (stereo not shown) [thalidomide], in the assay with blast-exposed rats [4], the “blast-induced tinnitus (gap detection)” value is reported as “Significant suppression of tinnitus; also recorded: significantly suppressed”. Also, in the assay on C57BL/6 mice, the “gap detection performance after NIHL” value was “dramatically improved gap detection performance over a wide frequency range, completely reversing the impairment”.
